Biological target: T1, PrapGr28 (Pieris rapae, UniProt Z9RYY0XAY3)
T1 construct: also UAS-PrapGr28 in Drosophila Gr5a sweet neurons; oligomer unknown
T1 sequence (Z9RYY0XAY3 1-399): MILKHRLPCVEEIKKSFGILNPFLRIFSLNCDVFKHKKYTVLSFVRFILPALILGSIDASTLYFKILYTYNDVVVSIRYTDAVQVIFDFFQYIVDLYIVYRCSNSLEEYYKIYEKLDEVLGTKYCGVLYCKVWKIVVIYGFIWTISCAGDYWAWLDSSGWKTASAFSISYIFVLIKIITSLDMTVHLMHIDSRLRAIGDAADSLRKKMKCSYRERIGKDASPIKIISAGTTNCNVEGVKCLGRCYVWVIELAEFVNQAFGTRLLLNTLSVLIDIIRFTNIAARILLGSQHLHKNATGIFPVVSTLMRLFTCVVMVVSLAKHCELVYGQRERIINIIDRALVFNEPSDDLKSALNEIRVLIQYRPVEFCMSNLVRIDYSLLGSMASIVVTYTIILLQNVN
Experiment: two-electrode voltage clamp, inward current in Xenopus oocytes
Assay type: cell-based
Conditions: agonist; PrapGr28 expressed alone; holding potential -80 mV; 0.1-50 mM dose range; also tip recording of Drosophila L-type sensilla expressing PrapGr28
From the text: two-electrode voltage clamp, inward current in Xenopus oocytes on […]28 | the oocytes expressing […]28 selectively responded to sinigrin

C=CC/C(=N/OS(=O)(=O)O)S[C@@H]1O[C@H](CO)[C@@H](O)[C@H](O)[C@H]1O [sinigrin]
inward current response at 1 mM: the oocytes expressing PrapGr28 selectively responded to sinigrin
